Test results reported in patent publication US10646591B2, “Imaging agents for imaging protease activity and uses thereof” (The United States of America, as represented by the …, priority 2011, dated 2020).

How the values were obtained:
[1] = test system: U87MG tumor; experiment: Ex vivo biodistribution in U87MG tumor-bearing mice; conditions: 4 hour time point
Procedure: Ex vivo imaging of excised tumor and organs further confirmed the targeting specificity and activation of the probes (data not shown). At 4 hours post-injection, the mice were sacrificed and major organ tissues and tumors were harvested, and placed on black paper for ex vivo imaging. For quantitative comparison, ROIs were drawn over tumors and the other organs, and the average signal for each area was measured. The results were presented as the average scaled signal from the organs and tumors. Values were expressed as mean±s.d. for a group of three animals.
T/N ratios are illustrated in FIG. 12A. […] After whole-mouse imaging at a 4 hour time point, tumors and organs were carefully removed and the biodistribution of compounds 4 and 6 was evaluated (FIG. 12B).

[2] = test system: MMP- and αvβ3 integrin receptor-positive U87MG tumor; experiment: In vivo optical imaging of U87MG tumor-bearing mice; conditions: for fluorescent signals in the tumor over time: 0.5 nmol injected
Procedure: Female athymic nude mice were supplied from Harlan at 4 to 5 weeks of age. The U87MG tumor model was generated by subcutaneous injection of 5×10^6 cells in Matrigel (BD Biosciences, Sparks, Md.) into the right front flank of female athymic nude mice at a volume of about 80 μl. The mice were then used for optical studies when the tumor volume reached about 300 mm^3. All animal studies were conducted in accordance with the principles and procedures outlined in the Guide for the Care and Use of Laboratory Animals and were approved by the Institutional Animal Care and Use Committee of Clinical Center, NIH.
Optical imaging acquirement and analysis were done using a Maestro 2.10 in vivo imaging system (CRI). […] The molar concentration of each samples were calculated by the sample weight. At 1, 2, 3, and 4 hours post-injection, the mice were subjected to optical imaging using appropriate filters for Cy5.5 and CW800. For the inhibition experiment, MMP inhibitor was intratumorally injected into tumor bearing mice 30 minutes before the imaging agent injection. After image acquisition, spectral unmixing yielded the pseudocolor images of the pure spectrum of respective dyes. Images were normalized and analyzed using Maestro software. For quantitative comparison, regions of interest (ROI) were drawn over tumors and muscle, and the average signal ([…]) for each area was measured. Values were expressed as mean±s.d. for a group of three animals.
It should be noted that only a limited dose of dye-labeled peptide probe like compounds 5 and 7 can be injected for whole body imaging, because of its high fluorescent background from the dye. In contrast, since fluorogenic probes are strongly quenched and a majority of the probe is activated at the target site, higher doses of the imaging agents of the present invention can be injected to enhance the ratio of region-of-interest (ROI) signal of tumor to normal tissue, muscle (T/N), at very early times. After injection, in vivo optical imaging was performed for 4 hours using a small animal imaging system (Maestro 2) equipped with appropriate filters for Cy5.5 and CW800.

[3] = test system: U87MG cells; experiment: Fluorescent microscopic study of receptor specificity in fixed U87MG cells; assay type: cell-based, human
Procedure: The U87MG cell is known to have high αvβ3 integrin density on the cell surface. […] Next, receptor specificity of the probes in cell culture was verified by fluorescent microscopic studies. […] (data not shown).

[4] = test system: MMP-positive SCC-7 tumor; experiment: In vivo NIR fluorescence imaging of SCC-7 tumor-bearing mice; conditions: intravenous, imaging for 24 hours, compared to other MMP-Pns and MMPSense 680
Procedure: Squamous cell carcinoma SCC-7 were cultured in RPMI 1640 medium containing 10% (v/v) fetal bovine serum (Invitrogen, Carlsbad, Calif.) supplemented with penicillin (100 μg/ml) and streptomycin (100 μg/ml) at 37° C. with 5% CO2. The SCC-7 tumor model was developed by subcutaneous injection of 1×10^6 cells into the right front flank of female athymic nude mice (Harlan Laboratories, Indianapolis, Ind.). The mice were used for optical studies when the tumor volume reached about 300 mm^3. […]
Optical image acquisition and analysis were done using a Maestro 2 imaging system (Cambridge Research & Instrumentation, Inc. (CRI), Woburn, Mass.). […] Images were normalized and analyzed by using Maestro software. For quantitative comparison, the regions of interest (ROI) were drawn over tumor (T) and normal tissue (N, muscle), and the average signal (×10^6 photons×cm^−2×s^−1) for each area was measured. […]
The MMP-Pns imaging agents used in Example 2, were then used to create a video image of the activity of MMPs in vivo. […] The MMP-P12 generated strong NIR fluorescence signals as early as 20 to 30 minutes after the probe injection and enabled clear visualization of MMPs in the tumor region thereafter.

CCN(CC)c1ccc2nc3ccc(/N=N/c4ccc(N(C)CCCC(=O)NCCCC[C@H](NC(=O)CNC(=O)[C@H](CCCNC(=N)N)NC(=O)[C@@H](NC(=O)CNC(=O)[C@H](CC(C)C)NC(=O)[C@@H]5CCCN5C(=O)CNC(=O)CCCCCN5/C(=C/C=C/C=C/C6=[N+](CC)c7ccc8c(S(=O)(=O)O)cc(S(=O)(=O)[O-])cc8c7C6(C)C)C(C)(C)c6c5ccc5c(S(=O)(=O)O)cc(S(=O)(=O)[O-])cc65)C(C)C)C(=O)NCC(=O)NCC(=O)NCCCC[C@@H]5NC(=O)[C@@H](Cc6ccc(O)cc6)NC(=O)[C@H](CC(=O)O)NC(=O)CNC(=O)[C@H](CCCNC(=N)N)NC5=O)cc4)cc3[n+](-c3ccccc3)c2c1 [compound 4]
ex vivo biodistribution (site of activation) [1]: predominantly activated in the tumors | NIR fluorescence signal from the tumor with MMP inhibitor ([2]; MMP inhibitor intratumorally 30 minutes before probe): significantly reduced | tumor uptake with excess unlabeled c(RGDyK) ([2]; c(RGDyK) 200 nmol, 30 minutes post-injection): effectively blocked | brightness of NIR fluorescent images ([2]; from 1 hour post-injection): brighter NIR fluorescent images compared to compound 6 | visualization of MMP expression in MMP positive tumor ([2]; intravenous, imaging for 4 hours): enabled visualization of MMP expression

CC[N+]1=C(/C=C/C=C/C=C2/N(CCCCCC(=O)NCC(=O)N3CCC[C@H]3C(=O)N[C@@H](CC(C)C)C(=O)NCC(=O)N[C@H](C(=O)N[C@@H](CCCNC(=N)N)C(=O)NCC(=O)N[C@@H](CCCCN)C(=O)NCC(=O)NCC(=O)NCCCC[C@@H]3NC(=O)[C@@H](Cc4ccc(O)cc4)NC(=O)[C@H](CC(=O)O)NC(=O)CNC(=O)[C@H](CCCNC(=N)N)NC3=O)C(C)C)c3ccc4c(S(=O)(=O)O)cc(S(=O)(=O)O)cc4c3C2(C)C)C(C)(C)c2c1ccc1c(S(=O)(=O)O)cc(S(=O)(=O)O)cc21 [compound 5]
fluorescent signals on the cell membranes ([3]; 30 minutes of incubation at 37° C.): Strong positive fluorescent signals | binding with receptor blocking by excess c(RGDyK) ([3]; blocking dose of c(RGDyK) 10 μM): significantly decreased | fluorescent signals in the tumor over time [2]: gradually increased

CC1(C)C(/C=C/C2=C(Oc3ccc(S(=O)(=O)O)cc3)C(=C/C=C3/N(CCCCS(=O)(=O)O)c4ccc(S(=O)(=O)O)cc4C3(C)C)/CCC2)=[N+](CCCCCC(=O)NCCCC[C@@H]2NC(=O)[C@@H](Cc3ccc(O)cc3)NC(=O)[C@H](CC(=O)O)NC(=O)CNC(=O)[C@H](CCCNC(=N)N)NC2=O)c2ccc(S(=O)(=O)O)cc21 [compound 7]
fluorescent signals in the tumor over time [2]: gradually increased

MMP-P4: Cy5.5-GPLGVRGK(BHQ3)GG-R, R = -NH(CH2CH2O)4H
onset of activation in vivo, NIR fluorescence in tumor region [4]: early onset of activation in vivo
